# In paper PMC5218480 (PLoS ONE, 2017):
# Test system: MV-4-11 cells
# Test: Gene expression microarray analysis (Affymetrix PrimeView) and GSEA
# Assay type: cell-based, human
# Design: RFU PODN (11730768_x_at) / Fold change /veh PODN (11730768_x_at) / RFU LINC00158 (11744669_a_at) / Fold change /veh LINC00158 (11744669_a_at) / RFU DUSP10 (11751237_a_at) / Fold change /veh DUSP10 (11751237_a_at) / RFU ID3 (11757404_x_at) / Fold change /veh ID3 (11757404_x_at) / RFU PLEKHG5 (11737974_s_at) / Fold change /veh PLEKHG5 (11737974_s_at) / RFU LRRC4B (11730491_at) / Fold change /veh LRRC4B (11730491_at) / RFU GIMAP4 (11747438_a_at) / Fold change /veh GIMAP4 (11747438_a_at) / RFU KRT8 (11758183_x_at) / Fold change /veh KRT8 (11758183_x_at) / RFU CNN1 (11734310_a_at) / Fold change /veh CNN1 (11734310_a_at) / RFU VPS37D (11726825_at) / Fold change /veh VPS37D (11726825_at) / RFU C10orf10 (11716522_x_at) / Fold change /veh C10orf10 (11716522_x_at) / RFU KIR2DL2 /// KIR2DL4 /// KIR2DL5A /// KIR2DL5B /// KIR2DS1 /// KIR2DS2 /// KIR2DS3 /// KIR2DS4 /// KIR3DL3 /// KIR3DL3 /// KIR3DS1 (11738374_at) / Fold change /veh KIR2DL2 /// KIR2DL4 /// KIR2DL5A /// KIR2DL5B /// KIR2DS1 /// KIR2DS2 /// KIR2DS3 /// KIR2DS4 /// KIR3DL3 /// KIR3DL3 /// KIR3DS1 (11738374_at) / RFU C1QL1 (11718748_at) / Fold change /veh C1QL1 (11718748_at) / RFU TMPRSS4 (11747572_a_at) / Fold change /veh TMPRSS4 (11747572_a_at) / RFU HAMP (11756126_x_at) / Fold change /veh HAMP (11756126_x_at) / RFU RNFT2 (11725882_a_at) / Fold change /veh RNFT2 (11725882_a_at) / RFU NR4A2 (11747474_a_at) / Fold change /veh NR4A2 (11747474_a_at) / RFU ABCC12 (11746883_a_at) / Fold change /veh ABCC12 (11746883_a_at) / RFU TMEM136 (11760407_x_at) / Fold change /veh TMEM136 (11760407_x_at) / RFU CLDN22 /// WWC2 (11732394_at) / Fold change /veh CLDN22 /// WWC2 (11732394_at) / RFU HLA-DPB1 (11760878_x_at) / Fold change /veh HLA-DPB1 (11760878_x_at) / RFU SPINT1 (11716480_a_at) / Fold change /veh SPINT1 (11716480_a_at) / RFU GAP43 (11754022_s_at) / Fold change /veh GAP43 (11754022_s_at) / RFU A4GNT (11735810_at) / Fold change /veh A4GNT (11735810_at) / RFU PRB3 (11715151_x_at) / Fold change /veh PRB3 (11715151_x_at) / RFU TUBB4B (11761932_at) / Fold change /veh TUBB4B (11761932_at) / RFU CAPN14 (11732068_a_at) / Fold change /veh CAPN14 (11732068_a_at) / RFU TMCC2 (11721928_a_at) / Fold change /veh TMCC2 (11721928_a_at) / RFU IRGQ (11745062_a_at) / Fold change /veh IRGQ (11745062_a_at) / RFU FAM174B (11720279_a_at) / Fold change /veh FAM174B (11720279_a_at) / RFU TMPRSS4 (11748680_a_at) / Fold change /veh TMPRSS4 (11748680_a_at) / RFU FAM212B (11763350_a_at) / Fold change /veh FAM212B (11763350_a_at) / RFU PLEKHG5 (11743358_a_at) / Fold change /veh PLEKHG5 (11743358_a_at) / RFU ZSCAN30 (11745921_a_at) / Fold change /veh ZSCAN30 (11745921_a_at) / RFU CMKLR1 (11741424_a_at) / Fold change /veh CMKLR1 (11741424_a_at) / RFU LOC101060620 /// MAPK8IP1 (11723275_at) / Fold change /veh LOC101060620 /// MAPK8IP1 (11723275_at) / RFU SPTSSB (11747773_x_at) / Fold change /veh SPTSSB (11747773_x_at) / RFU PRSS12 (11739890_at) / Fold change /veh PRSS12 (11739890_at) / RFU BIN1 (11741810_x_at) / Fold change /veh BIN1 (11741810_x_at) / RFU WNT11 (11732464_a_at) / Fold change /veh WNT11 (11732464_a_at) / RFU C10orf10 (11716521_a_at) / Fold change /veh C10orf10 (11716521_a_at) / RFU C5orf56 (11738089_at) / Fold change /veh C5orf56 (11738089_at) / RFU CYB561 (11721691_x_at) / Fold change /veh CYB561 (11721691_x_at) / RFU ANKRD19P (11752326_a_at) / Fold change /veh ANKRD19P (11752326_a_at) / RFU OR2T12 /// OR2T33 /// OR2T8 (11738714_s_at) / Fold change /veh OR2T12 /// OR2T33 /// OR2T8 (11738714_s_at) / RFU VCAN (11748164_a_at) / Fold change /veh VCAN (11748164_a_at) / RFU JSRP1 (11732532_at) / Fold change /veh JSRP1 (11732532_at) / RFU KRTAP10-11 (11738290_x_at) / Fold change /veh KRTAP10-11 (11738290_x_at) / RFU MYO3A (11730013_a_at) / Fold change /veh MYO3A (11730013_a_at) / RFU EBF3 (11725865_a_at) / Fold change /veh EBF3 (11725865_a_at) / RFU CAMK2N1 (11719241_x_at) / Fold change /veh CAMK2N1 (11719241_x_at) / RFU C5orf56 (11738088_a_at) / Fold change /veh C5orf56 (11738088_a_at) / RFU OLFML3 (11715873_a_at) / Fold change /veh OLFML3 (11715873_a_at) / RFU LOC100653217 /// NTM (11731650_a_at) / Fold change /veh LOC100653217 /// NTM (11731650_a_at) / RFU MAPK11 (11762145_a_at) / Fold change /veh MAPK11 (11762145_a_at) / RFU FIZ1 (11724087_x_at) / Fold change /veh FIZ1 (11724087_x_at) / RFU OASL (11726364_x_at) / Fold change /veh OASL (11726364_x_at) / RFU SOX15 (11748057_x_at) / Fold change /veh SOX15 (11748057_x_at) / RFU CD79A (11719716_a_at) / Fold change /veh CD79A (11719716_a_at) / RFU HIST1H1D (11736915_at) / Fold change /veh HIST1H1D (11736915_at) / RFU CASKIN2 (11723855_a_at) / Fold change /veh CASKIN2 (11723855_a_at) / RFU LOC730098 (11760151_x_at) / Fold change /veh LOC730098 (11760151_x_at) / RFU OR4N2 (11742367_at) / Fold change /veh OR4N2 (11742367_at) / RFU PRRT2 (11749266_a_at) / Fold change /veh PRRT2 (11749266_a_at) / RFU SNX32 (11753110_a_at) / Fold change /veh SNX32 (11753110_a_at) / RFU CDHR5 (11726645_a_at) / Fold change /veh CDHR5 (11726645_a_at) / RFU RCAN1 (11760418_a_at) / Fold change /veh RCAN1 (11760418_a_at) / RFU FAM167A (11723789_a_at) / Fold change /veh FAM167A (11723789_a_at) / RFU FAM26E (11764081_at) / Fold change /veh FAM26E (11764081_at) / RFU ISYNA1 (11749810_s_at) / Fold change /veh ISYNA1 (11749810_s_at) / RFU ACY1 (11761880_at) / Fold change /veh ACY1 (11761880_at) / RFU 11764098_at / Fold change /veh 11764098_at / RFU SAMD14 (11745864_x_at) / Fold change /veh SAMD14 (11745864_x_at) / RFU NPB (11741838_a_at) / Fold change /veh NPB (11741838_a_at) / RFU TMPRSS6 (11731388_a_at) / Fold change /veh TMPRSS6 (11731388_a_at) / RFU KRTAP10-2 (11738614_at) / Fold change /veh KRTAP10-2 (11738614_at) / RFU ARHGAP8 /// PRR5-ARHGAP8 (11727945_x_at) / Fold change /veh ARHGAP8 /// PRR5-ARHGAP8 (11727945_x_at) / RFU KRTAP5-7 /// NADSYN1 (11734609_at) / Fold change /veh KRTAP5-7 /// NADSYN1 (11734609_at) / RFU RASL12 (11751679_a_at) / Fold change /veh RASL12 (11751679_a_at) / RFU CDKN2B (11736163_a_at) / Fold change /veh CDKN2B (11736163_a_at) / RFU PRF1 (11729649_at) / Fold change /veh PRF1 (11729649_at) / RFU, ZNF638 /// ZNF638-IT1 / Fold change vs veh, ZNF638 /// ZNF638-IT1 / RFU, PANK3 / Fold change vs veh, PANK3 / RFU, SH3YL1 / Fold change vs veh, SH3YL1 / RFU, ZEB2 / Fold change vs veh, ZEB2 / RFU, NRIP1 / Fold change vs veh, NRIP1 / RFU, PTTG1IP / Fold change vs veh, PTTG1IP / RFU, CAPN2 / Fold change vs veh, CAPN2 / RFU, MED14 / Fold change vs veh, MED14 / RFU, SNORA58 / Fold change vs veh, SNORA58 / RFU, C1orf63 / Fold change vs veh, C1orf63 / RFU, LRRFIP1 / Fold change vs veh, LRRFIP1 / RFU, NDUFAF7 / Fold change vs veh, NDUFAF7 / RFU, SLC12A2 / Fold change vs veh, SLC12A2 / RFU, IBTK / Fold change vs veh, IBTK / RFU, ESF1 / Fold change vs veh, ESF1 / Fold change vs veh, TMEM50B / RFU, TAOK1 / Fold change vs veh, TAOK1 / RFU, ACBD3 / Fold change vs veh, ACBD3 / RFU, TMA16 / Fold change vs veh, TMA16 / RFU, RWDD3 / Fold change vs veh, RWDD3 / RFU, BCAT1 / Fold change vs veh, BCAT1 / RFU, EDEM3 / Fold change vs veh, EDEM3 / RFU, TMEM33 / Fold change vs veh, TMEM33 / RFU, WDR75 / Fold change vs veh, WDR75 / RFU, AHCTF1 / Fold change vs veh, AHCTF1 / RFU, TFRC / Fold change vs veh, TFRC / RFU, ZDHHC17 / Fold change vs veh, ZDHHC17 / RFU, NOM1 / Fold change vs veh, NOM1 / RFU, ARL8B / Fold change vs veh, ARL8B / RFU, ZBTB11 / Fold change vs veh, ZBTB11 / RFU, TAMM41 / Fold change vs veh, TAMM41 / RFU, KIAA1704 /// LOC100996395 / Fold change vs veh, KIAA1704 /// LOC100996395 / RFU, ING1 / Fold change vs veh, ING1 / RFU, TRMT61B / Fold change vs veh, TRMT61B / RFU, FUBP3 / Fold change vs veh, FUBP3 / RFU, TP53 / Fold change vs veh, TP53 / RFU, TNKS2 / Fold change vs veh, TNKS2 / RFU, ZFP14 / Fold change vs veh, ZFP14 / RFU, ACTR2 / Fold change vs veh, ACTR2 / RFU, PPP3R1 / Fold change vs veh, PPP3R1 / RFU, PIK3R1 / Fold change vs veh, PIK3R1 / RFU, HNRNPA1 / Fold change vs veh, HNRNPA1 / RFU, RNF170 / Fold change vs veh, RNF170 / RFU, ZNF28 / Fold change vs veh, ZNF28 / RFU, RNGTT / Fold change vs veh, RNGTT / RFU, OGT / Fold change vs veh, OGT / RFU, BRD1 / Fold change vs veh, BRD1 / RFU, MARS / Fold change vs veh, MARS / RFU, ZNF655 / Fold change vs veh, ZNF655 / RFU, FAHD1 / Fold change vs veh, FAHD1 / RFU, BDP1 / Fold change vs veh, BDP1 / RFU, LRRCC1 / Fold change vs veh, LRRCC1 / RFU, ARID1A / Fold change vs veh, ARID1A / RFU, ZNF146 / Fold change vs veh, ZNF146 / RFU, ZNF330 / Fold change vs veh, ZNF330 / RFU, GPN3 / Fold change vs veh, GPN3 / RFU, C9orf123 / Fold change vs veh, C9orf123 / RFU, N4BP2L2 / Fold change vs veh, N4BP2L2 / RFU, ARFIP1 / Fold change vs veh, ARFIP1 / RFU, FAM179B / Fold change vs veh, FAM179B / RFU, BCL10 / Fold change vs veh, BCL10 / RFU, UHRF1BP1L / Fold change vs veh, UHRF1BP1L / RFU, BET1 / Fold change vs veh, BET1 / RFU, CNOT2 / Fold change vs veh, CNOT2 / RFU, ZNF268 / Fold change vs veh, ZNF268 / Fold change vs veh, ZNF507 / RFU, DGCR2 / Fold change vs veh, DGCR2 / RFU, WDSUB1 / Fold change vs veh, WDSUB1 / Fold change vs veh, HSP90B1 /// MIR3652 / RFU, ADSS / Fold change vs veh, ADSS / RFU, GK / Fold change vs veh, GK / RFU, ZNF148 / Fold change vs veh, ZNF148 / RFU, TAF9 / Fold change vs veh, TAF9 / RFU, SLC1A5 / Fold change vs veh, SLC1A5 / RFU, SLMO2 / Fold change vs veh, SLMO2 / RFU, ABCC4 / Fold change vs veh, ABCC4 / RFU, LOC101060439 /// RAP1B / Fold change vs veh, LOC101060439 /// RAP1B / RFU, RFX7 / Fold change vs veh, RFX7 / RFU, GTPBP10 / Fold change vs veh, GTPBP10 / RFU, CNEP1R1 / Fold change vs veh, CNEP1R1 / RFU, BIVM-ERCC5 /// ERCC5 / Fold change vs veh, BIVM-ERCC5 /// ERCC5 / RFU, ILF3 / Fold change vs veh, ILF3 / RFU 11762660_at / Fold change /veh 11762660_at / RFU VCAN (11757783_s_at) / Fold change /veh VCAN (11757783_s_at) / RFU DDX43 (11728927_at) / Fold change /veh DDX43 (11728927_at) / RFU KRT8 (11758188_x_at) / Fold change /veh KRT8 (11758188_x_at) / RFU NKD1 (11759106_at) / Fold change /veh NKD1 (11759106_at) / RFU SRD5A1 (11742802_a_at) / Fold change /veh SRD5A1 (11742802_a_at) / RFU TPSAB1 /// TPSB2 (11721975_s_at) / Fold change /veh TPSAB1 /// TPSB2 (11721975_s_at) / RFU GSTM3 (11746129_a_at) / Fold change /veh GSTM3 (11746129_a_at) / RFU IL23R (11737362_x_at) / Fold change /veh IL23R (11737362_x_at) / RFU TMEM51 (11727254_a_at) / Fold change /veh TMEM51 (11727254_a_at) / RFU PIWIL2 (11732686_x_at) / Fold change /veh PIWIL2 (11732686_x_at) / RFU ORM1 (11744905_x_at) / Fold change /veh ORM1 (11744905_x_at) / RFU CCDC152 (11743942_at) / Fold change /veh CCDC152 (11743942_at) / RFU ECM1 (11717891_a_at) / Fold change /veh ECM1 (11717891_a_at) / RFU IL23R (11748794_a_at) / Fold change /veh IL23R (11748794_a_at) / RFU TNFAIP8L3 (11732012_x_at) / Fold change /veh TNFAIP8L3 (11732012_x_at) / RFU MBOAT4 (11741988_at) / Fold change /veh MBOAT4 (11741988_at) / RFU 11764193_at / Fold change /veh 11764193_at / RFU TMEM53 (11763286_at) / Fold change /veh TMEM53 (11763286_at) / RFU MAGEB2 (11727129_at) / Fold change /veh MAGEB2 (11727129_at) / RFU TMEM200A (11744735_a_at) / Fold change /veh TMEM200A (11744735_a_at) / RFU CCDC152 (11751479_a_at) / Fold change /veh CCDC152 (11751479_a_at) / RFU FAM211A (11726209_a_at) / Fold change /veh FAM211A (11726209_a_at) / RFU RGS16 (11746705_a_at) / Fold change /veh RGS16 (11746705_a_at) / RFU VCAN (11755009_s_at) / Fold change /veh VCAN (11755009_s_at) / RFU RHOB (11743442_s_at) / Fold change /veh RHOB (11743442_s_at) / RFU RGS16 (11720943_a_at) / Fold change /veh RGS16 (11720943_a_at) / RFU RGS16 (11720944_at) / Fold change /veh RGS16 (11720944_at) / RFU, VPS4B / Fold change vs veh, VPS4B / RFU, CREB1 / Fold change vs veh, CREB1 / RFU, DNAJC13 / Fold change vs veh, DNAJC13 / RFU, GNAQ / Fold change vs veh, GNAQ / RFU, CDK5R1 / Fold change vs veh, CDK5R1 / RFU, ZRANB3 / Fold change vs veh, ZRANB3 / RFU, CUL4A / Fold change vs veh, CUL4A / RFU, CCNY / Fold change vs veh, CCNY / RFU, UFL1 / Fold change vs veh, UFL1 / RFU, COG3 / Fold change vs veh, COG3 / RFU, DIAPH2 / Fold change vs veh, DIAPH2 / RFU, SKA2 / Fold change vs veh, SKA2 / RFU, AFF3 / Fold change vs veh, AFF3 / RFU, LMF1 / Fold change vs veh, LMF1 / RFU, IPO11 / Fold change vs veh, IPO11 / RFU, DFFB / Fold change vs veh, DFFB / RFU, FOXP1 / Fold change vs veh, FOXP1 / RFU, CARD8 / Fold change vs veh, CARD8 / RFU, STRN3 / Fold change vs veh, STRN3 / RFU, ADK / Fold change vs veh, ADK / RFU, RASSF2 / Fold change vs veh, RASSF2 / RFU, WIPF1 / Fold change vs veh, WIPF1 / RFU, LARP1B / Fold change vs veh, LARP1B / RFU, RASA1 / Fold change vs veh, RASA1 / RFU, RB1 / Fold change vs veh, RB1 / RFU, PPFIA1 / Fold change vs veh, PPFIA1 / RFU, MAT2A / Fold change vs veh, MAT2A / RFU, CCT5 / Fold change vs veh, CCT5 / RFU, WDR92 / Fold change vs veh, WDR92 / RFU, CUX1 / Fold change vs veh, CUX1 / RFU, TTC7A / Fold change vs veh, TTC7A / RFU, TMEM135 / Fold change vs veh, TMEM135 / RFU, DEPTOR / Fold change vs veh, DEPTOR / RFU, CPM / Fold change vs veh, CPM / RFU, DNAJB6 / Fold change vs veh, DNAJB6 / RFU, CACNA2D3 / Fold change vs veh, CACNA2D3 / RFU, DTX4 / Fold change vs veh, DTX4 / RFU, TFCP2 / Fold change vs veh, TFCP2 / RFU, GMCL1 /// GMCL1P1 / Fold change vs veh, GMCL1 /// GMCL1P1 / RFU, AEBP2 / Fold change vs veh, AEBP2 / RFU, SNHG1 /// SNORD22 /// SNORD25 /// SNORD26 /// SNORD27 /// SNORD28 /// SNORD29 /// SNORD31 / Fold change vs veh, SNHG1 /// SNORD22 /// SNORD25 /// SNORD26 /// SNORD27 /// SNORD28 /// SNORD29 /// SNORD31 / Fold change (Aza/veh), C12orf56 (ProbeSet 11735607_a_at) / Fold change (ACY-1035/veh), C12orf56 (ProbeSet 11735607_a_at) / Fold change (Aza/veh), FGFR1OP (ProbeSet 11751329_s_at) / Fold change (ACY-1035/veh), FGFR1OP (ProbeSet 11751329_s_at) / Fold change (Aza/veh), VPS36 (ProbeSet 11739960_a_at) / Fold change (ACY-1035/veh), VPS36 (ProbeSet 11739960_a_at) / RFU SYPL1 (11715823_x_at) / Fold change /veh SYPL1 (11715823_x_at) / RFU IGFBP7 (11715501_s_at) / Fold change /veh IGFBP7 (11715501_s_at) / RFU REEP3 (11722064_at) / Fold change /veh REEP3 (11722064_at) / RFU IGLL1 (11728026_x_at) / Fold change /veh IGLL1 (11728026_x_at): dose or concentration left out as unconfirmed
# Conditions: MV-4-11 cells, 48 hours
smiles,measurement,value
Nc1ccc(-c2cccs2)cc1NC(=O)c1ccc2c(c1)cc(C1CC1)n2CCN1CCOCC1 [ACY-1035],Fold change /veh OASL (11726364_x_at),1.03
